Columns and labels:
[1] = Sulfur-containing compound removal reaction, BuSH in liquid hydrocarbon (GC-SCD); settings: BuSH 50 μL (1000 ppm by volume) in kerosene 50 mL; aldehyde 250 μL; room temperature; reaction time 1 day
Protocol: In a 100 mL three-neck flask, 50 mL of kerosene was put and 50 μL (1000 ppm by volume, 0.46 mmol) of BuSH was added thereto to obtain a kerosene solution containing a sulfur-containing compound.
Next, 250 μL (2.59 mmol) of SAL and 250 μL (1.71 mmol) of DBU were added to the kerosene solution, and the solution was stirred at room temperature (20° C.±5° C., the same applies hereinafter) and at 800 rpm to perform a sulfur-containing compound removal reaction.
After 1-day reaction, the mercaptan concentration of the liquid phase in the three-neck flask was measured.
The mercaptan concentration of the liquid phase was measured using a calibration curve method by gas chromatography. The gas chromatography was performed under the following conditions.
Analyzer: GC-SCD (manufactured by Agilent Technologies Japan, Ltd.)
Detector: sulfur chemiluminescence detector (SCD)
Column: DB-sulfur SCD (length: 60 m, thickness: 4.2 μm, inner diameter: 0.32 mm) (manufactured by Agilent Technologies Japan, Ltd.)
Analytical conditions: inject. temp. 250° C., detect. temp. 250° C.
Temperature rise condition: 35° C. (kept for 3 minutes) (raised at 10° C./min)→250° C. (kept for 15 minutes)
Internal Standard Substance: diphenyl sulfide
A sulfur-containing compound removal reaction was performed in the same manner as in Example 3 except that crude oil was used in place of kerosene.

[2] = conjugate acid in water at 25° C.; cited from earlier work

## CC(C)=CC=O [Comparative Example 1, Senecioaldehyde]
[1]
  Removal rate: <10%

## CN(C)CCN(C)CCN(C)C [PMDETA, N,N,N′,N″,N″-Pentamethydiethylenetriamine]
[2]
  pKa: 9.1

## C1CCC2=NCCCN2CC1 [DBU, 1,8-Diazabicyclo[5.4.0]-7-undecene]
[2]
  pKa: 11.5

## C=CC=O [Comparative Example 4, Acrolein]
[1]
  Removal rate: 15%

Reference: patent US11795404B2, “Composition for removing sulfur-containing compounds” (KURARAY CO., LTD., priority 2018, dated 2023)
